From patent US20020018768A1, “Control of gene expression” (YISSUM RESEARCH DEVELOPMENT COMPANY OF THE HEBREW …, priority 1999, published 2002)

System: CFTR transcripts carrying the 3849+10 kb C→T mutation in 091398K cells
Assay: Splicing of native CFTR transcripts in 091398K nasal polyp epithelial cell line after transient transfection with splicing factors (DAC-30)
Format: cell-based
Conditions: transfection efficiency ~60%, untreated 21%
Description: A polyp sample from a CF patient, compound heterozygous for the splicing mutation 3849+10 kb C→T and the W 1282X mutations was obtained. This patient suffered from nasal polyps and underwent nasal polypectomy. An epithelial cell line (091398K) was established from the polyp sample in collaboration with Dr. J. Yankaskas from the University of North Carolina. […] Thus a system in which the effect of splicing factors or) a native CFTR gene could be studied, was established.
Transient transfections of 091398 k cells with cellular factors were performed, using DAC-30. […] The viral factor E4-oRF3 slightly promoted exon inclusion and led to an increase in, the level of aberrantly spliced transcripts (21% to 28%). Thus, the mean effect could have reached ˜35%.

ASF/SF2: cellular SR protein splicing factor, overexpressed by transient transfection
level of aberrantly spliced CFTR transcripts after overexpression: 11%
